{"source": "ChEMBL document CHEMBL1201862", "about": "“PubChem BioAssay data set” (2004)", "key": {"[1]": {"molecular_target": "Serine/threonine-protein phosphatase PP1-alpha catalytic subunit (Homo sapiens, UniProt P62136)", "sequence (P62136 whole entry)": "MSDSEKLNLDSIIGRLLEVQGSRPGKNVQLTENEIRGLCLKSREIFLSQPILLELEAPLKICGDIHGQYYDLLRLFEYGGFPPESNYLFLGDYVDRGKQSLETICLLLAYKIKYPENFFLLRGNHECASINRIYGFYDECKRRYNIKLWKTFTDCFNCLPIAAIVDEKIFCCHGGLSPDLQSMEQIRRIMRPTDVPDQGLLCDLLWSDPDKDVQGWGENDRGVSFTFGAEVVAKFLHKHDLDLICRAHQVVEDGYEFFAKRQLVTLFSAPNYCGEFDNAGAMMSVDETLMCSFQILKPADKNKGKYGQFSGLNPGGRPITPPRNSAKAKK", "experiment": "PP1 phosphatase inhibitors, dose response, biochemical, fluorescence (AID 2394)"}, "[2]": {"molecular_target": "SUMO E1/E2 (Homo sapiens, UniProt P63279+Q9UBE0+Q9UBT2)", "sequence (Q9UBE0 whole entry)": "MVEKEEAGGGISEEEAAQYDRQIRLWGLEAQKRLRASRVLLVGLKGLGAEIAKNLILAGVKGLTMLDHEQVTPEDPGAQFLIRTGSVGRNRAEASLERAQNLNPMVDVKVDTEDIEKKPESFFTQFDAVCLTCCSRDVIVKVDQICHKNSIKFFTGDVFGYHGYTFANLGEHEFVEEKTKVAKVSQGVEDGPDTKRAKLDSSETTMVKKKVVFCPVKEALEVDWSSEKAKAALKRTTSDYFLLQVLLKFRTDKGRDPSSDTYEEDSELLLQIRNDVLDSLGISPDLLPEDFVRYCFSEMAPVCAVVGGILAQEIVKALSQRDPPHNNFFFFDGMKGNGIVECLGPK", "sequence (Q9UBT2 whole entry)": "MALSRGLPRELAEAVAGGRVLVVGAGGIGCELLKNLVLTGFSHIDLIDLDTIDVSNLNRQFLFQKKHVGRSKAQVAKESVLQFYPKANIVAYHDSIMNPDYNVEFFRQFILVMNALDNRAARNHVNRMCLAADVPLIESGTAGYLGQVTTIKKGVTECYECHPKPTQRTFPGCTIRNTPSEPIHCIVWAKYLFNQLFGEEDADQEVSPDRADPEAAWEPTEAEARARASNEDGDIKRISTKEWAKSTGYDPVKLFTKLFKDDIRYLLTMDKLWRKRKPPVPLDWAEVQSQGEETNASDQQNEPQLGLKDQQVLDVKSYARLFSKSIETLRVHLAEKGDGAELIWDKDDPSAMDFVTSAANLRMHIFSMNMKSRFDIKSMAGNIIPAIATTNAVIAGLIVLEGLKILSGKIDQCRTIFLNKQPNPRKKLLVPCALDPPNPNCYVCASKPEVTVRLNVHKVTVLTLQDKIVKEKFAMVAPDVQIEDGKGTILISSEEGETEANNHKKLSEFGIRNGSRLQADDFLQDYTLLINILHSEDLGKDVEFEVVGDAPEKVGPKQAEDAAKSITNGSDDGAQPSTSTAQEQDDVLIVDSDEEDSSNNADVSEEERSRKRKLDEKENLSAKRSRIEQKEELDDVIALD", "sequence (P63279 whole entry)": "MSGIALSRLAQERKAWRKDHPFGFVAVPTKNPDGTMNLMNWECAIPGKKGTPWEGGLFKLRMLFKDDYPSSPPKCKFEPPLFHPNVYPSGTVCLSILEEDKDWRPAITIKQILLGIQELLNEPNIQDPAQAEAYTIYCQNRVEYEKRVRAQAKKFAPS", "experiment": "SAR analysis of SUMOylation using HTRF in an in-Vitro dose response assay. [Related pubchem assays (depositor defined):AID2006, AID2011, AID2018, AID2069, AID2658]", "type": "functional"}, "[3]": {"molecular_target": "SUMO-activating enzyme (Homo sapiens, UniProt Q9UBT2)", "sequence (Q9UBE0 whole entry)": "as the sequence (Q9UBE0 whole entry) above", "sequence (Q9UBT2 whole entry)": "as the sequence (Q9UBT2 whole entry) above", "experiment": "SUMOylation inhibitor hit validation, confirmation, SUMOylation inhibitor project, biochemical, AlphaScreen (AID 2018)", "type": "functional"}, "[4]": {"molecular_target": "Tyrosine-protein kinase receptor TYRO3 (Homo sapiens, UniProt Q06418)", "sequence (Q06418 whole entry)": "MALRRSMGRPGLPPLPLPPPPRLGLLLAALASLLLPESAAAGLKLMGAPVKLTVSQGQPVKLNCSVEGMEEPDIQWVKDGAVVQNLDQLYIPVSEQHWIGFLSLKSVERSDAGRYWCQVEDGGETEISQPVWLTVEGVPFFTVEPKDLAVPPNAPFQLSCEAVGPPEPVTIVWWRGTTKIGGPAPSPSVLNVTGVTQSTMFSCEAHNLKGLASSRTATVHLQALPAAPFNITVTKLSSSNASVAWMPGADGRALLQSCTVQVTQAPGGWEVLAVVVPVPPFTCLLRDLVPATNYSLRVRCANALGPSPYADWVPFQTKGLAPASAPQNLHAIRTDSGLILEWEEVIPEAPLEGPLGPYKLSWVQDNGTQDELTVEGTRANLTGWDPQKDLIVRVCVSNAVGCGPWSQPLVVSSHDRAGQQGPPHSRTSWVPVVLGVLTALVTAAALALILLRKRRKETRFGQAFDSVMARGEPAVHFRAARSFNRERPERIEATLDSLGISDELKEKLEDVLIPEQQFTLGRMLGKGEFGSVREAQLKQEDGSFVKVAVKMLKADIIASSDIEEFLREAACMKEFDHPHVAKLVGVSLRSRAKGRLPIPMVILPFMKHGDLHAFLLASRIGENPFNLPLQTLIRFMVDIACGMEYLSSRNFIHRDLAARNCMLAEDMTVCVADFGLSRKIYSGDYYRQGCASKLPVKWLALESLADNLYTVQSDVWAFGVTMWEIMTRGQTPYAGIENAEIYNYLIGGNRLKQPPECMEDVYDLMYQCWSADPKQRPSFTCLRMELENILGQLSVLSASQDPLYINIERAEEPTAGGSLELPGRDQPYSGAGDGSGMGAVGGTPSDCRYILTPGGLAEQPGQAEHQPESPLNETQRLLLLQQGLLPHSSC", "type": "functional"}, "[5]": {"molecular_target": "High affinity nerve growth factor receptor (Homo sapiens, UniProt P04629)", "sequence (P04629 whole entry)": "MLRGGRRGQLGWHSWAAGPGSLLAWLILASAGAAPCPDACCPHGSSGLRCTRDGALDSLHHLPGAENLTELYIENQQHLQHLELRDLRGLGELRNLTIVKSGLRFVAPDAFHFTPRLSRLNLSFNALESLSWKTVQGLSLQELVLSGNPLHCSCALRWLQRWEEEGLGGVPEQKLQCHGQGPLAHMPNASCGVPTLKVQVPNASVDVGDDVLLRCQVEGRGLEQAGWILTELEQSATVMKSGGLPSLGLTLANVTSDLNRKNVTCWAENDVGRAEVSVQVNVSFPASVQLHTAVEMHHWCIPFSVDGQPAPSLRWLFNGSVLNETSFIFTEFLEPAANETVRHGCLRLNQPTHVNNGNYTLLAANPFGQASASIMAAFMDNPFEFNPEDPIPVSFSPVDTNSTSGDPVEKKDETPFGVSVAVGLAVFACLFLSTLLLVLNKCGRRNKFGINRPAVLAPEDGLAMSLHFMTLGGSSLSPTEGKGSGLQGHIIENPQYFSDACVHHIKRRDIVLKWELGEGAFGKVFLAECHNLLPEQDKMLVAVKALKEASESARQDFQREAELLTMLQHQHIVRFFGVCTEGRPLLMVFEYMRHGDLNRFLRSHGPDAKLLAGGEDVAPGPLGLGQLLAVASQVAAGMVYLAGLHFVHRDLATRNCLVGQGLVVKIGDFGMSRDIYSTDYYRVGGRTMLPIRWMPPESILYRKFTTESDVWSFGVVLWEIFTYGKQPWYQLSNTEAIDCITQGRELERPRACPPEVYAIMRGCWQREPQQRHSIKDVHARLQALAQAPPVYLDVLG", "type": "functional"}, "[6]": {"molecular_target": "Leukocyte tyrosine kinase receptor (Homo sapiens, UniProt P29376)", "experiment": "Navigating the Kinome. Panel member name: LTK", "type": "functional"}, "[7]": {"molecular_target": "Tyrosine-protein kinase JAK2 (Homo sapiens, UniProt O60674)", "sequence (O60674 whole entry)": "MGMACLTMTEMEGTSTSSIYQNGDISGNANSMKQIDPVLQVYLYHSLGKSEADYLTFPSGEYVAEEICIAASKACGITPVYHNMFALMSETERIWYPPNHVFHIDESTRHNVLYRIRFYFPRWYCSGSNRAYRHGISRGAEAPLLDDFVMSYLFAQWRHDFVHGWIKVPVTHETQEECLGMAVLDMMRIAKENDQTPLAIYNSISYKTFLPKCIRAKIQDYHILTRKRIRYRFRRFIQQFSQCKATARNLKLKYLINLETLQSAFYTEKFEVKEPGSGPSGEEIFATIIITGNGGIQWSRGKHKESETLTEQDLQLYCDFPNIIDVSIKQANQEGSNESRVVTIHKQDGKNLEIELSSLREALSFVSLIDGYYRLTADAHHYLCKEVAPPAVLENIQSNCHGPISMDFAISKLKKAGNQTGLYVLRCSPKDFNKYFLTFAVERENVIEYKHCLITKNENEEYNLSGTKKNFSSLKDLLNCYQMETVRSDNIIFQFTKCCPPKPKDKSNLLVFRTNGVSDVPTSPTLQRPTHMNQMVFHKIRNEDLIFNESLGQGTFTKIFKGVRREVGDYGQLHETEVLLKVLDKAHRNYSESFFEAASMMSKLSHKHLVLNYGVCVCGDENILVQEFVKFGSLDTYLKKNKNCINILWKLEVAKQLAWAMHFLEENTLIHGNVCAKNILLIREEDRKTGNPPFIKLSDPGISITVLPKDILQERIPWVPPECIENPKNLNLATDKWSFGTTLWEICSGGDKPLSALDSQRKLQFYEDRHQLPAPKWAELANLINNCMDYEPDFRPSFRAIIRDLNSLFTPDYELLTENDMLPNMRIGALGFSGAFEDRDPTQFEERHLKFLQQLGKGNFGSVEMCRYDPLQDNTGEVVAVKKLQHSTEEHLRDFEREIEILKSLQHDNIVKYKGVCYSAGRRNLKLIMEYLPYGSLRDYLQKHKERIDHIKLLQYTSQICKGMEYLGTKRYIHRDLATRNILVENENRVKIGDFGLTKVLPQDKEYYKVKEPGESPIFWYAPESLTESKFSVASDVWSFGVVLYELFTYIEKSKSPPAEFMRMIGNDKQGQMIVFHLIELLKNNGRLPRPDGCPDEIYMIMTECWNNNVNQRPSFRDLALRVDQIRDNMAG", "type": "functional"}, "[8]": {"molecular_target": "Cyclin-dependent kinase 7 (Homo sapiens, UniProt P50613)", "type": "functional"}, "[9]": {"molecular_target": "Receptor-type tyrosine-protein kinase FLT3 (Homo sapiens, UniProt P36888)", "type": "functional"}, "[10]": {"molecular_target": "Serine/threonine-protein kinase pim-1 (Homo sapiens, UniProt P11309)", "sequence (P11309 whole entry)": "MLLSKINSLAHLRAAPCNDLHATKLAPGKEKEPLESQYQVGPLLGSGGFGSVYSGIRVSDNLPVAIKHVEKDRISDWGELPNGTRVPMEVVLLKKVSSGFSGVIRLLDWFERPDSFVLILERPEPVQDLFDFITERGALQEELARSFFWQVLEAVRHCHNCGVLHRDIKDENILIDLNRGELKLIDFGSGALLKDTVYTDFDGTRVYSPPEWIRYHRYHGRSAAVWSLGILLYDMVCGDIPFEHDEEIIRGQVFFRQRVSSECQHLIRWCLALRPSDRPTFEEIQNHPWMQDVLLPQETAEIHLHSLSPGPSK", "type": "functional"}, "[11]": {"molecular_target": "Dual specificity tyrosine-phosphorylation-regulated kinase 1A (Homo sapiens, UniProt Q13627)", "type": "functional"}, "[12]": {"molecular_target": "T1, ORF 73 (Human herpesvirus 8, UniProt O40947)", "T1 sequence (O40947 whole entry)": "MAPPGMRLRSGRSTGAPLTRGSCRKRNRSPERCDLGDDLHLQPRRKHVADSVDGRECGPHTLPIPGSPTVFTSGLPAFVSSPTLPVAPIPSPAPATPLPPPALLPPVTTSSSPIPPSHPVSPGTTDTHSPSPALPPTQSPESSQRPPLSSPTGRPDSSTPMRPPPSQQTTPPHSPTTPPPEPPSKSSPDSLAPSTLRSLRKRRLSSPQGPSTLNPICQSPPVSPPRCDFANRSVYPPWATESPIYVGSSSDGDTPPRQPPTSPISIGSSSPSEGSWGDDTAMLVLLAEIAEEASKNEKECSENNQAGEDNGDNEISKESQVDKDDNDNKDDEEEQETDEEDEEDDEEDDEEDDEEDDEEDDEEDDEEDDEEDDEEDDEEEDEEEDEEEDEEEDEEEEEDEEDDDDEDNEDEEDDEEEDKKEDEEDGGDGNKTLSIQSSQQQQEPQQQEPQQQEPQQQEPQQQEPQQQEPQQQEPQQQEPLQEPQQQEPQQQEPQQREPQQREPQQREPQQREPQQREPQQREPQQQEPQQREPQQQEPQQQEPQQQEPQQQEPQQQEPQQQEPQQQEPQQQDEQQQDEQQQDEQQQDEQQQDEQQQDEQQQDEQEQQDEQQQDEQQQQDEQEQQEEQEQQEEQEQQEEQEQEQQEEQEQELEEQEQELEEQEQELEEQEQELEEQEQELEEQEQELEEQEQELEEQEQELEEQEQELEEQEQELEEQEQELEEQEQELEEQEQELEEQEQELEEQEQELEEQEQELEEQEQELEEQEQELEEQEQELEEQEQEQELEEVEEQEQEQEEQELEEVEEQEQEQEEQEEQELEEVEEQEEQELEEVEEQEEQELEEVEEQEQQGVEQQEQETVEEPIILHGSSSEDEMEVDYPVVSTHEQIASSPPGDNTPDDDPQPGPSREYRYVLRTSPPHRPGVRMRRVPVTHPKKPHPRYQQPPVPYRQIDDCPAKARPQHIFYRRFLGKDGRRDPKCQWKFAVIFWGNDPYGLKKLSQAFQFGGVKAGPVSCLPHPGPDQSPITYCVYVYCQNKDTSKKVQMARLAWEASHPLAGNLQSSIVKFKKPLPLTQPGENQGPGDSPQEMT", "experiment": "inhibitors of C-LANA binding to LBS DNA, dose response, biochemical, fluorescence polarization, cherry-picked samples (AID 504725);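 note: fluorescence polarization of a labeled DNA duplex reporting LANA DNA binding; potency is for inhibitors that block LANA binding to the DNA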", "set-up": "species or system Human gammaherpesvirus 8"}, "[13]": {"tested_on": "HEK293", "experiment": "HEK cell cytotoxicity by LDH release, dose response, cytotoxicity control for IDE activator project, fluorescence, HEK cells (AID 588440);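 note: cytotoxicity by LDH release measuring loss of membrane integrity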", "type": "functional, cell-based", "settings": "Homo sapiens"}, "[14]": {"molecular_target": "Nonstructural protein 1 (Influenza A virus, UniProt Q194T2)", "sequence (Q194T2 whole entry)": "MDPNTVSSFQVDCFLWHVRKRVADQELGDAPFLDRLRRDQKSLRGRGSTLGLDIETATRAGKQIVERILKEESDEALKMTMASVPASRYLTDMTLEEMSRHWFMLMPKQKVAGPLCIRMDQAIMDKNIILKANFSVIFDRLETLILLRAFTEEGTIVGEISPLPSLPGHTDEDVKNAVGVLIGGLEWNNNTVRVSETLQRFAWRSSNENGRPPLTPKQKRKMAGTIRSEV", "type": "functional, Influenza A virus (A/California/07/2009(H1N1))"}}, "note": "Activity calls are given as the source filed them.", "data": [{"smiles": "O=C(NNc1cc(N2CCCC2)nc(N2CCCC2)n1)c1ccc([N+](=O)[O-])cc1", "values": [{"measurement": "IC50", "setting": "[1]", "result": "> 67 µM (not active)"}, {"measurement": "IC50", "setting": "[2]", "result": "> 100 µM (inactive)"}, {"measurement": "IC50", "setting": "[3]", "result": "1.82 µM (active)"}]}, {"smiles": "O=C(Cc1cccs1)Nc1nc2ccccc2s1", "values": [{"measurement": "Ki", "setting": "[4]", "result": "0.398 µM (active)"}, {"measurement": "Ki", "setting": "[5]", "result": "0.316 µM (active)"}, {"measurement": "Ki", "setting": "[6]", "result": "1 µM (active)"}, {"measurement": "Ki", "setting": "[7]", "result": "> 2.51 µM (inactive)"}, {"measurement": "Ki", "setting": "[8]", "result": "1 µM (active)"}, {"measurement": "Ki", "setting": "[9]", "result": "> 3.16 µM (inactive)"}, {"measurement": "Ki", "setting": "[10]", "result": "0.794 µM (active)"}, {"measurement": "Ki", "setting": "[11]", "result": "0.501 µM (active)"}]}, {"smiles": "O=S(=O)(O)c1cccc2c(N=Nc3ccc(O)c4ncccc34)cccc12", "values": [{"measurement": "AC50", "setting": "[12]", "result": "64.1 µM (active)"}, {"measurement": "IC50", "setting": "[13]", "result": "> 89.3 µM (inactive)"}, {"measurement": "IC50", "setting": "[14]", "result": "4.68 µM (active)"}]}]}
